The text below walks through data of patent US7632811B2, “Analogs of parathyroid hormone” (Societe de Conseils de Recherches et D'Applications …, priority 1995, dated 2009).

Each structure is given as a SMILES string. Read-outs that look alike come from different tables or passages of the source. Non-standard residues stand in square brackets, D forms with d. Residues, ends and D or L forms follow the SMILES beside them. Cha = N[C@@H](CC1CCCCC1)C(=O)O; Ac6c = NC1(C(=O)O)CCCCC1; Nle = CCCC[C@H](N)C(=O)O; Aib = CC(C)(N)C(=O)O

The target of this experiment is T1, PTH receptor present on SaOS-2 (human osteosarcoma cells) (Homo sapiens, UniProt Q03431).
T1 construct: host or cells: SaOS-2 human osteosarcoma cells (intact, confluent monolayers)
T1 sequence (Q03431 27-593): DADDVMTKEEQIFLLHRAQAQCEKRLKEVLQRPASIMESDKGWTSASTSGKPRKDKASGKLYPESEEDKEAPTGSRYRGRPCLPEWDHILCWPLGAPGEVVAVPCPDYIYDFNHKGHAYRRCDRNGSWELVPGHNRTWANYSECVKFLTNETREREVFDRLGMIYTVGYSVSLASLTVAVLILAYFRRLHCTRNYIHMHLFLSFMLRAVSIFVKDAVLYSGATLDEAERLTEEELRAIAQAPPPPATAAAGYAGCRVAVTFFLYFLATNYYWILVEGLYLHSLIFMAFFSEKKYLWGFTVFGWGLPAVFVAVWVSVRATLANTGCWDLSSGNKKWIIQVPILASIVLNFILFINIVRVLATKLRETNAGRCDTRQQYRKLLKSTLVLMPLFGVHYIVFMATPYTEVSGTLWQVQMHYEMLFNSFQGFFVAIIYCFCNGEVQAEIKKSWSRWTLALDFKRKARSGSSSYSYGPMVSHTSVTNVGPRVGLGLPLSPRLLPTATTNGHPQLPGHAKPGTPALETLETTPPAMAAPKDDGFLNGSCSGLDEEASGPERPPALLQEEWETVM
In words: Binding to PTH receptor on SaOS-2 cells (competition with mono-125I-[Nle8,18,Tyr34(3-125I)]bPTH(1-34)NH2). To be noted: 2 hrs at room temperature, read-out: Kd (half maximal inhibition of binding of mono-125I-[Nle8,18, Tyr34(3-125I)]bPTH(1-34)NH2). How it is done:
A. Binding to PTH Receptor
The peptides of the invention were tested for their ability to bind to the PTH receptor present on SaOS-2 (human osteosarcoma cells). SaOS-2 cells (American Type Culture Collection, Rockville, Md.; ATCC #HTB 85) were maintained in RPMI 1640 medium (Sigma, St. Louis, Mo.) supplemented with 10% fetal bovine serum (FBS) and 2 mM glutamine at 37EC in a humidified atmosphere of 5% CO2 in air. The medium was changed every three or four days, and the cells were subcultured every week by trypsinization.
SaOS-2 cells were maintained for four days until they had reached confluence. The medium was replaced with 5% FBS in RPMI 1640 medium and incubated for 2 hrs at room temperature with 10×10^4 cpm mono-^125I-[Nle^8,18, Tyr^34(3-^125I)]bPTH(1-34)NH2 in the presence of a competing peptides of the invention at various concentrations between 10^−11 M to 10^−4 M. The cells were washed four times with ice-cold PBS and lysed with 0.1 M NaOH, and the radioactivity associated with the cells was counted in a scintillation counter. Synthesis of mono-^125I-[Nle^8,18, Tyr^34(3-^125I)]bPTH(1-34)NH2 was carried out as described in Goldman, M. E., et al., Endocrinol., 123:1468 (1988).
The binding assay was conducted with various peptides of the invention, and the Kd value (half maximal inhibition of binding of mono-^125I-[Nle^8,18, Tyr^34(3-^125I)]bPTH(1-34)NH2) for each peptide was calculated.

Regarding `CCCC[C@H](NC(=O)[C@H](CO)NC(=O)[C@H](CC(N)=O)NC(=O)[C@H](CC(C)C)NC(=O)[C@H](Cc1c[nH]cn1)NC(=O)[C@H](CCCCN)NC(=O)CNC(=O)[C@H](CC1CCCCC1)NC(=O)[C@H](CC(N)=O)NC(=O)[C@H](Cc1c[nH]cn1)NC(=O)[C@H](CCCC)NC(=O)[C@H](CC1CCCCC1)NC(=O)[C@H](CCC(N)=O)NC(=O)[C@@H](NC(=O)[C@H](CCC(=O)O)NC(=O)[C@H](CO)NC(=O)[C@@H](NC(=O)[C@@H](N)CO)C(C)C)[C@@H](C)CC)C(=O)N[C@@H](CCC(=O)O)C(=O)N[C@@H](CCCNC(=N)N)C(=O)N[C@H](C(=O)N[C@@H](CCC(=O)O)C(=O)N[C@@H](Cc1c[nH]c2ccccc12)C(=O)N[C@@H](CC(C)C)C(=O)N[C@@H](CCCNC(=N)N)C(=O)N[C@@H](CCCCN)C(=O)N[C@@H](CCCCN)C(=O)N[C@@H](CC(C)C)C(=O)N[C@@H](CCC(N)=O)C(=O)N[C@@H](CC(=O)O)C(=O)N[C@H](C(=O)N[C@@H](Cc1c[nH]cn1)C(=O)N[C@@H](CC(N)=O)C(=O)N[C@@H](Cc1ccc(O)cc1)C(N)=O)C(C)C)C(C)C` [[Cha^7,11, Nle^8,18, Tyr^34]hPTH(1-34)NH2] (H-SVSEIQ[Cha][Nle]HN[Cha]GKHLNS[Nle]ERVEWLRKKLQDVHNY-NH2), under “Table I”, the Kd (in general, the constant that tells how readily two partners part at equilibrium) turned out to be 6 nM.
On the same count and under the same terms, the same measure for `CC[C@H](C)[C@H](NC(=O)[C@H](CCC(=O)O)NC(=O)[C@H](CO)NC(=O)[C@@H](NC(=O)[C@@H](N)CO)C(C)C)C(=O)N[C@@H](CCC(N)=O)C(=O)N[C@@H](CC1CCCCC1)C(=O)N[C@@H](CCSC)C(=O)N[C@@H](Cc1c[nH]cn1)C(=O)N[C@@H](CC(N)=O)C(=O)N[C@@H](CC1CCCCC1)C(=O)NCC(=O)N[C@@H](CCCCN)C(=O)N[C@@H](Cc1c[nH]cn1)C(=O)N[C@@H](CC(C)C)C(=O)N[C@@H](CC(N)=O)C(=O)N[C@@H](CO)C(=O)N[C@@H](CCSC)C(=O)N[C@@H](CCC(=O)O)C(=O)N[C@@H](CCCNC(=N)N)C(=O)N[C@H](C(=O)N[C@@H](CCC(=O)O)C(=O)N[C@@H](Cc1c[nH]c2ccccc12)C(=O)N[C@@H](CC(C)C)C(=O)N[C@@H](CCCNC(=N)N)C(=O)N[C@@H](CCCCN)C(=O)N[C@@H](CCCCN)C(=O)N[C@@H](CC(C)C)C(=O)N[C@@H](CCC(N)=O)C(=O)N[C@@H](CC(=O)O)C(=O)N[C@H](C(=O)N[C@@H](Cc1c[nH]cn1)C(=O)N[C@@H](CC(N)=O)C(=O)N[C@@H](Cc1ccccc1)C(N)=O)C(C)C)C(C)C` [[Cha^7,11]hPTH(1-34)NH2] (H-SVSEIQ[Cha]MHN[Cha]GKHLNSMERVEWLRKKLQDVHNF-NH2): 10 nM; for `CC[C@H](C)[C@H](NC(=O)[C@H](CCC(=O)O)NC(=O)[C@H](CO)NC(=O)[C@@H](NC(=O)[C@@H](N)CO)C(C)C)C(=O)N[C@@H](CCC(N)=O)C(=O)N[C@@H](CC1CCCCC1)C(=O)N[C@@H](CCSC)C(=O)N[C@@H](Cc1c[nH]cn1)C(=O)N[C@@H](CC(N)=O)C(=O)N[C@@H](CC(C)C)C(=O)NCC(=O)N[C@@H](CCCCN)C(=O)N[C@@H](Cc1c[nH]cn1)C(=O)N[C@@H](CC(C)C)C(=O)N[C@@H](CC(N)=O)C(=O)N[C@@H](CO)C(=O)N[C@@H](CCSC)C(=O)N[C@@H](CCC(=O)O)C(=O)N[C@@H](CCCNC(=N)N)C(=O)N[C@H](C(=O)N[C@@H](CCC(=O)O)C(=O)N[C@@H](Cc1c[nH]c2ccccc12)C(=O)N[C@@H](CC(C)C)C(=O)N[C@@H](CCCNC(=N)N)C(=O)N[C@@H](CCCCN)C(=O)N[C@@H](CCCCN)C(=O)N[C@@H](CC(C)C)C(=O)N[C@@H](CCC(N)=O)C(=O)N[C@@H](CC(=O)O)C(=O)N[C@H](C(=O)N[C@@H](Cc1c[nH]cn1)C(=O)N[C@@H](CC(N)=O)C(=O)N[C@@H](Cc1ccccc1)C(N)=O)C(C)C)C(C)C` [[Cha^7]hPTH(1-34)NH2] (H-SVSEIQ[Cha]MHNLGKHLNSMERVEWLRKKLQDVHNF-NH2): 20 nM; for `CC[C@H](C)[C@H](NC(=O)[C@H](CCC(=O)O)NC(=O)[C@H](CO)NC(=O)[C@@H](NC(=O)[C@@H](N)CO)C(C)C)C(=O)N[C@@H](CCC(N)=O)C(=O)N[C@@H](CC(C)C)C(=O)N[C@@H](CCSC)C(=O)N[C@@H](Cc1c[nH]cn1)C(=O)N[C@@H](CC(N)=O)C(=O)N[C@@H](CC1CCCCC1)C(=O)NCC(=O)N[C@@H](CCCCN)C(=O)N[C@@H](Cc1c[nH]cn1)C(=O)N[C@@H](CC(C)C)C(=O)N[C@@H](CC(N)=O)C(=O)N[C@@H](CO)C(=O)N[C@@H](CCSC)C(=O)N[C@@H](CCC(=O)O)C(=O)N[C@@H](CCCNC(=N)N)C(=O)N[C@H](C(=O)N[C@@H](CCC(=O)O)C(=O)N[C@@H](Cc1c[nH]c2ccccc12)C(=O)N[C@@H](CC(C)C)C(=O)N[C@@H](CCCNC(=N)N)C(=O)N[C@@H](CCCCN)C(=O)N[C@@H](CCCCN)C(=O)N[C@@H](CC(C)C)C(=O)N[C@@H](CCC(N)=O)C(=O)N[C@@H](CC(=O)O)C(=O)N[C@H](C(=O)N[C@@H](Cc1c[nH]cn1)C(=O)N[C@@H](CC(N)=O)C(=O)N[C@@H](Cc1ccccc1)C(N)=O)C(C)C)C(C)C` [[Cha^11]hPTH(1-34)NH2] (H-SVSEIQLMHN[Cha]GKHLNSMERVEWLRKKLQDVHNF-NH2): 5 nM.
The same measure, in the same setting: as for `CC[C@H](C)[C@H](NC(=O)[C@H](CCC(=O)O)NC(=O)[C@H](CO)NC(=O)[C@@H](NC(=O)[C@@H](N)CO)C(C)C)C(=O)N[C@@H](CCC(N)=O)C(=O)N[C@@H](CC(C)C)C(=O)N[C@@H](CCSC)C(=O)N[C@@H](Cc1c[nH]cn1)C(=O)N[C@@H](CC(N)=O)C(=O)N[C@@H](CC(C)C)C(=O)NCC(=O)N[C@@H](CCCCN)C(=O)N[C@@H](Cc1c[nH]cn1)C(=O)N[C@@H](CC1CCCCC1)C(=O)N[C@@H](CC(N)=O)C(=O)N[C@@H](CO)C(=O)N[C@@H](CCSC)C(=O)N[C@@H](CCC(=O)O)C(=O)N[C@@H](CCCNC(=N)N)C(=O)N[C@H](C(=O)N[C@@H](CCC(=O)O)C(=O)N[C@@H](Cc1c[nH]c2ccccc12)C(=O)N[C@@H](CC(C)C)C(=O)N[C@@H](CCCNC(=N)N)C(=O)N[C@@H](CCCCN)C(=O)N[C@@H](CCCCN)C(=O)N[C@@H](CC(C)C)C(=O)N[C@@H](CCC(N)=O)C(=O)N[C@@H](CC(=O)O)C(=O)N[C@H](C(=O)N[C@@H](Cc1c[nH]cn1)C(=O)N[C@@H](CC(N)=O)C(=O)N[C@@H](Cc1ccccc1)C(N)=O)C(C)C)C(C)C` [[Cha^15]hPTH(1-34)NH2] (H-SVSEIQLMHNLGKH[Cha]NSMERVEWLRKKLQDVHNF-NH2), the figure is 5 nM.
`CC[C@H](C)[C@H](NC(=O)[C@H](CO)NC(=O)[C@H](CCCCN)NC(=O)CNC(=O)[C@H](CCCCN)NC(=O)[C@H](CC(=O)O)NC(=O)[C@H](Cc1c[nH]cn1)NC(=O)[C@H](CC(C)C)NC(=O)[C@H](CC(C)C)NC(=O)[C@H](CCC(N)=O)NC(=O)[C@H](Cc1c[nH]cn1)NC(=O)[C@H](CCC(=O)O)NC(=O)[C@H](CO)NC(=O)[C@@H](NC(=O)[C@H](C)N)C(C)C)C(=O)N[C@@H](CCC(N)=O)C(=O)N[C@@H](CC(=O)O)C(=O)N[C@@H](CC(C)C)C(=O)N[C@@H](CCCNC(=N)N)C(=O)N[C@@H](CCCNC(=N)N)C(=O)N[C@@H](CCCNC(=N)N)C(=O)N[C@@H](CC1CCCCC1)C(=O)N[C@@H](CC(C)C)C(=O)N[C@@H](CC(C)C)C(=O)N[C@@H](CCC(=O)O)C(=O)N[C@@H](CCCCN)C(=O)NC1(C(=O)N[C@@H](CC(C)C)C(=O)NC(C)(C)C(=O)N[C@@H](CCCCN)C(=O)N[C@@H](CC(C)C)C(=O)N[C@@H](Cc2c[nH]cn2)C(=O)N[C@H](C(=O)N[C@@H](C)C(N)=O)[C@@H](C)O)CCCCC1` [[Cha^22, Leu^23,28,31, Glu^25, Lys^26,30, Ahc^27, Aib^29]hPTHrP(1-34)NH2] (H-AVSEHQLLHDKGKSIQDLRRR[Cha]LLEK[Ac6c]L[Aib]KLHTA-NH2): the Kd (Table II) amounted to 60 nM.
